The target of one test is T1, Estrogen receptor (Homo sapiens, UniProt P03372).
T1 sequence (P03372 whole entry): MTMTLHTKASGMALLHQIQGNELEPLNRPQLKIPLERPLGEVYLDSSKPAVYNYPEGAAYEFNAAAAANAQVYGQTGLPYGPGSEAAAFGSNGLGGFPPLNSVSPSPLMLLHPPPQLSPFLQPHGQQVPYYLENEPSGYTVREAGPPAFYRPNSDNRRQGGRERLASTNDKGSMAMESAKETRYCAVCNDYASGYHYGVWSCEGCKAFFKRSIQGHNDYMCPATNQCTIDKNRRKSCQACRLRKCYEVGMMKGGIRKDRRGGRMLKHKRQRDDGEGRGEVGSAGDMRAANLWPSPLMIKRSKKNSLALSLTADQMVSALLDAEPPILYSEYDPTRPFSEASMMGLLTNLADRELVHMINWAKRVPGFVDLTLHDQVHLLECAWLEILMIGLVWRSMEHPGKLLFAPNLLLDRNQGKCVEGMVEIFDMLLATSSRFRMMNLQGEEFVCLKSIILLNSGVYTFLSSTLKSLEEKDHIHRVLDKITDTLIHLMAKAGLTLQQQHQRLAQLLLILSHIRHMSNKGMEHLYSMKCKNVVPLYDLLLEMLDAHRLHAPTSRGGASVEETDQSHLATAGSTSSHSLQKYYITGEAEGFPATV

Test [1] deals with T2, Equilibrative nucleoside transporter 1 (Homo sapiens, UniProt Q99808).
T2 sequence (Q99808 whole entry): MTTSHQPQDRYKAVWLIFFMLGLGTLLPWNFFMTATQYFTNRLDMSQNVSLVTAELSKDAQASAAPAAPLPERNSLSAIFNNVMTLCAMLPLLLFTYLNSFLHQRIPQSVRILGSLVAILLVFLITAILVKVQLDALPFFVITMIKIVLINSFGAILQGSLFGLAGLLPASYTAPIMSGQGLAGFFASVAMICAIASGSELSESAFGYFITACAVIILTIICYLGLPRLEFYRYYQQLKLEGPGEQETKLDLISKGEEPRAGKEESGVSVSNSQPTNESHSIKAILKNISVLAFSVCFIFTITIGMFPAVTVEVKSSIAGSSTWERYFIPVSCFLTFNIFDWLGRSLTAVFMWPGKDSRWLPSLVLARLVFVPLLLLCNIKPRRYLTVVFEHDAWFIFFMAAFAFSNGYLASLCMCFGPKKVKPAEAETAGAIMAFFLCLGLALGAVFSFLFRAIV

The target of the next test is D(1A) dopamine receptor (Homo sapiens, UniProt P21728). In kind it is functional, cell-based.
Test [2] deals with Beta-2 adrenergic receptor (Homo sapiens, UniProt P07550).
For test [3], the target named is T3, Gastrin/cholecystokinin type B receptor (Homo sapiens, UniProt P32239).
T3 sequence (P32239 whole entry): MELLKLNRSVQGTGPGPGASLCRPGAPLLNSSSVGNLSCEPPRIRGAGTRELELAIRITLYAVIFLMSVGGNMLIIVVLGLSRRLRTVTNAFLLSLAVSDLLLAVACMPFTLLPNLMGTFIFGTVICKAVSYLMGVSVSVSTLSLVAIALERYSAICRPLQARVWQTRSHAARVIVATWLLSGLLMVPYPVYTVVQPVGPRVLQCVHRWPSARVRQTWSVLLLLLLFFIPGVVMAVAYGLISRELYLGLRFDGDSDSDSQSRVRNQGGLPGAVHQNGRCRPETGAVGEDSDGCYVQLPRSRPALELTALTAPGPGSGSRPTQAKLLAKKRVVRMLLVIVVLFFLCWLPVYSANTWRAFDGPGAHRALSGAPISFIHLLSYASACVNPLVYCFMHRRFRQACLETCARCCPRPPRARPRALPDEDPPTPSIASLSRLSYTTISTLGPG

For test [4], the target named is T4, 5-hydroxytryptamine receptor 2B (Homo sapiens, UniProt P41595). In kind it is functional, cell-based.
The target in test [5] is Beta-1 adrenergic receptor (Homo sapiens, UniProt P08588). The test is classed as functional.
Test [6] concerns the target cGMP-inhibited 3',5'-cyclic phosphodiesterase 3A (Homo sapiens, UniProt Q14432). The test is classed as functional.
The next test concerns the target T5, Adenosine receptor A1 (Homo sapiens, UniProt P30542).
T5 sequence (P30542 whole entry): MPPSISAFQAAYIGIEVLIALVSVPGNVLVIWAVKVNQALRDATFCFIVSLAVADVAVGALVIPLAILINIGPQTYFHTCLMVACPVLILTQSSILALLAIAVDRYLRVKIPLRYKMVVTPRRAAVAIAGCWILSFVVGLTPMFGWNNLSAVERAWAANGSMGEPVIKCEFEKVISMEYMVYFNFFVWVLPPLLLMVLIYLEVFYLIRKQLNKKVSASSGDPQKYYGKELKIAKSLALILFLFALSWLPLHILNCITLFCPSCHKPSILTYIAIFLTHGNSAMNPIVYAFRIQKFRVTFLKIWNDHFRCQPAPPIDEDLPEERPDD

The target of test [7] is T4, 5-hydroxytryptamine receptor 2B. In kind it is functional, cell-based. This is another data set of the same source.

The structures appear in SMILES notation. Values joined by “and” are separate entries in the source; they are usually repeats but may differ in a detail not shown here. Identical values can stand only once. Some results are limits rather than exact numbers.

The text below walks through data of ChEMBL document CHEMBL5291721, “A preclinical secondary pharmacology resource illuminates target-adverse drug reaction associations of marketed drugs” (Nat Commun, 2023).
Further: assay procedure not described here.

Chain of Beta-2 adrenergic receptor (P07550 whole entry): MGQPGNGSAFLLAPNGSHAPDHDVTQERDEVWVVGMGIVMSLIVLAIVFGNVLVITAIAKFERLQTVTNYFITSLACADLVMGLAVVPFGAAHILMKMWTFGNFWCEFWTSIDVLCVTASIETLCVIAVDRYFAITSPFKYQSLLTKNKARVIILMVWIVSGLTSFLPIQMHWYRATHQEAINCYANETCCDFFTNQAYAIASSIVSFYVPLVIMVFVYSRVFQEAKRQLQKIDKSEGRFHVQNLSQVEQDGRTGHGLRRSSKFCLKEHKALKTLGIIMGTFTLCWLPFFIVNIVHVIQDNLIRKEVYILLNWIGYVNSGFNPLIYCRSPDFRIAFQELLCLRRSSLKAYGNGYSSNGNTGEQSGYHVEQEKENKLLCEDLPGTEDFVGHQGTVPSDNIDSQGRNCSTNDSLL
Chain of cGMP-inhibited 3',5'-cyclic phosphodiesterase 3A (Q14432 whole entry): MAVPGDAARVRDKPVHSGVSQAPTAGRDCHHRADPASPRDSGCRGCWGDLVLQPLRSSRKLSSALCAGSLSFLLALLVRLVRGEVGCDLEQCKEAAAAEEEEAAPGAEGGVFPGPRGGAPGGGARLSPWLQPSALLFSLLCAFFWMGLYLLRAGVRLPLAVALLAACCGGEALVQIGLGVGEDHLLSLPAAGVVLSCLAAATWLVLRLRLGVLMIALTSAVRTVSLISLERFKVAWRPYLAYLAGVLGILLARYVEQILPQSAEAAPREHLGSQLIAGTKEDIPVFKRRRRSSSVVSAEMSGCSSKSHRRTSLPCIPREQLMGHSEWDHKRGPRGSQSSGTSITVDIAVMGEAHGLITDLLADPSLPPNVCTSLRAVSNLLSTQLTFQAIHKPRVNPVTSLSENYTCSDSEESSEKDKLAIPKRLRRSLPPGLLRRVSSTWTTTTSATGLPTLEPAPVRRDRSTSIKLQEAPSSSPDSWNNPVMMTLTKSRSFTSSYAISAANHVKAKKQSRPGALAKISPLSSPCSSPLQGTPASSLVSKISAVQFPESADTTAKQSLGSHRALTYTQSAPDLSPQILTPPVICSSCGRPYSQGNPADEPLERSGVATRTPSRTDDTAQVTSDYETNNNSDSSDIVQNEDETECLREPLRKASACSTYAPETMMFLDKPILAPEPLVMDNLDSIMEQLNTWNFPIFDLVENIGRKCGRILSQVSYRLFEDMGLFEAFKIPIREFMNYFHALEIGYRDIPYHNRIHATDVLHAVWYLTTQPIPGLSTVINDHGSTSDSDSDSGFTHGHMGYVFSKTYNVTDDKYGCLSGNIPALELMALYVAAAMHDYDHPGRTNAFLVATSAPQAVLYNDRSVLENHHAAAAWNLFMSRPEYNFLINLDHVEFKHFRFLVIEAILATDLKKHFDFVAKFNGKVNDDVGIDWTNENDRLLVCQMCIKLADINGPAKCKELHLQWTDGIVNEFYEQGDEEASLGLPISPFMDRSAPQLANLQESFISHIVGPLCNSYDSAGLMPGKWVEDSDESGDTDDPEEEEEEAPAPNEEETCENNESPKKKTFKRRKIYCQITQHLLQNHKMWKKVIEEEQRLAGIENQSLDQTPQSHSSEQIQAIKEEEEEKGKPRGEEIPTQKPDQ
Chain of D(1A) dopamine receptor (P21728 whole entry): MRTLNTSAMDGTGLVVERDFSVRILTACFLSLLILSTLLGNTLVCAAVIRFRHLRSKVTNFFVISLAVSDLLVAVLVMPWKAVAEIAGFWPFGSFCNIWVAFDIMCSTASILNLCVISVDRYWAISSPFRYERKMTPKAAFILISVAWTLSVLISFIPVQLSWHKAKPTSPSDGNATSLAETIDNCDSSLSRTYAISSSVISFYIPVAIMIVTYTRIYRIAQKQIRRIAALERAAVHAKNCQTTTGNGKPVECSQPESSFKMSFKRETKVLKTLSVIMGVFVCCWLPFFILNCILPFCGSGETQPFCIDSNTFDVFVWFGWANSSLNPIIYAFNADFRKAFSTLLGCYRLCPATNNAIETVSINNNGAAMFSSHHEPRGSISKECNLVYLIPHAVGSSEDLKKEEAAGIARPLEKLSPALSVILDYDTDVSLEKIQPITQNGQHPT
T4 sequence (P41595 whole entry): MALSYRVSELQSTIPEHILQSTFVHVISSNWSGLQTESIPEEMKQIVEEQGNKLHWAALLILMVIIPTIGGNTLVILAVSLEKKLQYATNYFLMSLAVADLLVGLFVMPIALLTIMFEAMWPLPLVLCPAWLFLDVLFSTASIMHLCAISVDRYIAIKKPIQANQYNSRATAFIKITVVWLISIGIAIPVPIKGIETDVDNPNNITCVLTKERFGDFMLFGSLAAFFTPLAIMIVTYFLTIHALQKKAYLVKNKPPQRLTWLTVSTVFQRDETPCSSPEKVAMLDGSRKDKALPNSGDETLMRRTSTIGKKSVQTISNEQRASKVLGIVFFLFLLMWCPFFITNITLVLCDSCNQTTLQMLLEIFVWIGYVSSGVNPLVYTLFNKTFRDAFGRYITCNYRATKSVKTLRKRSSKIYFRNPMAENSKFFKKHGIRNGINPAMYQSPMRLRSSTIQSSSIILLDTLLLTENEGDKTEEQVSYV
Chain of Beta-1 adrenergic receptor (P08588 whole entry): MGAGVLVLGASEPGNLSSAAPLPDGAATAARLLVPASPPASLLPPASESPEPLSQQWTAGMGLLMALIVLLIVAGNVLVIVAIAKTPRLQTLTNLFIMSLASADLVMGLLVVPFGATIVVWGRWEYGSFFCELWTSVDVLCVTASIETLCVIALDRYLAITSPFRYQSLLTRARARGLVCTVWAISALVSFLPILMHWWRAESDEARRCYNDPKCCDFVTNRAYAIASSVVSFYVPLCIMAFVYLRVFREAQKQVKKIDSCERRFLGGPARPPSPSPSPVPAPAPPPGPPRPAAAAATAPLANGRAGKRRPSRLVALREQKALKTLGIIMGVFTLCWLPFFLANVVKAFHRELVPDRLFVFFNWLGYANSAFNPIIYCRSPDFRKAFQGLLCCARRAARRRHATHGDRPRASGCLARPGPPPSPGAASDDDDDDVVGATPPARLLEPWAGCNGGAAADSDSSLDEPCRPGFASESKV

One may read the AC50 as the concentration giving half of the maximal activity seen. Low readings indicate activity at low concentration, high ones activity only at high concentration. In the case of `O=C(O)COc1ccc(C(=O)c2cccs2)c(Cl)c1Cl`, the AC50 on Estrogen receptor was > 30 µM.

For `C[C@@H](Oc1cc(-c2cnn(C3CCNCC3)c2)cnc1N)c1c(Cl)ccc(F)c1Cl` [CRIZOTINIB], the AC50 was > 30 µM in test [1]; > 30 µM at D(1A) dopamine receptor; > 10 µM in test [2]; > 30 µM in [3]; 2.7 µM in [4]; > 30 µM in test [5]. The AC50 (in test [6]; on Adenosine receptor A1; in test [7]) was > 30 µM each time.

In the case of `CN(C)CC[C@@H](c1ccc(Cl)cc1)c1ccccn1` [DEXCHLORPHENIRAMINE], the AC50 (in test [1]; at D(1A) dopamine receptor; in [2]; in [3]; in test [4]; in test [5]) was > 30 µM in each case. The half-maximal activity concentration (AC50) in test [6] is > 10 µM; on Adenosine receptor A1, > 30 µM; in [7] it was > 30 µM.

As to `CC(C)N(CCC(C(N)=O)(c1ccccc1)c1ccccn1)C(C)C` (centres undefined) [DISOPYRAMIDE], the AC50 in test [1] was > 30 µM; at D(1A) dopamine receptor, > 10 µM; in test [2], > 30 µM; in test [3], > 30 µM; in [4] it was > 10 µM; in [5] it was > 30 µM. For the same compound, the results for the AC50 (in test [6]; on Adenosine receptor A1; in test [7]) were 5.4 µM, > 30 µM and > 10 µM, respectively.

Take `C[C@H]1c2cccc(O)c2C(=O)C2=C(O)[C@]3(O)C(=O)C(C(N)=O)=C(O)[C@@H](N(C)C)[C@@H]3[C@@H](O)[C@@H]21` [DOXYCYCLINE]: the AC50 in [1] was > 30 µM; on D(1A) dopamine receptor, > 10 µM; in [2] it was > 10 µM; in [3], > 30 µM; in test [4], > 10 µM; in test [5], > 10 µM. Further, the AC50 in test [6] was > 30 µM; at Adenosine receptor A1, 24.2 µM; in [7], > 10 µM.

`C#C[C@]1(O)CC[C@H]2[C@@H]3CCC4=CC(=O)CC[C@@H]4[C@H]3C(=C)C[C@@]21CC` [ETONOGESTREL]: the concentration at half-maximal activity (AC50) was > 30 µM at D(1A) dopamine receptor; 5.62 µM at Estrogen receptor; > 30 µM in [4]; > 30 µM in test [6]; > 30 µM in test [7].

Consider `O=C(O)CO` [GLYCOLIC ACID], for which the AC50 at Estrogen receptor is > 30 µM.

With `CC(CCc1ccccc1)NCC(O)c1ccc(O)c(C(N)=O)c1` (centres undefined) [LABETALOL], on Estrogen receptor, the AC50 was > 30 µM.

`CCOC(=O)c1c(C)cc2c(CO)n[nH]c(=O)c2c1C` [OXAGRELATE]: the AC50 on Estrogen receptor is > 30 µM.

As for `CN1C(C(=O)Nc2ccccn2)=C(O)c2ccccc2S1(=O)=O` [PIROXICAM], the concentration at half-maximal activity (AC50) is > 10 µM in test [1]; > 10 µM on D(1A) dopamine receptor; > 10 µM in [2]; > 30 µM at Estrogen receptor; > 10 µM in [4]; > 10 µM in test [5]. Besides, the half-maximal activity concentration (AC50) is > 30 µM in test [6], > 10 µM at Adenosine receptor A1 and > 10 µM in test [7].

As for `CO[C@H]1/C=C/O[C@@]2(C)Oc3c(C)c(O)c4c(O)c(c(/C=N/N5CCN(C)CC5)c(O)c4c3C2=O)NC(=O)/C(C)=C\C=C\[C@H](C)[C@H](O)[C@@H](C)[C@@H](O)[C@@H](C)[C@H](OC(C)=O)[C@@H]1C` [RIFAMPIN], the AC50 is 12.4 µM in test [1]; > 30 µM on D(1A) dopamine receptor; 29 µM in test [2]; > 30 µM in test [3]; > 30 µM in test [4]; 28 µM in [5]. Also, the concentration at half-maximal activity (AC50) in [6] is 18.3 µM; on Adenosine receptor A1 it was 18.8 µM; in test [7], > 30 µM.

`CN(C)CCc1c[nH]c2ccc(Cn3cncn3)cc12` [RIZATRIPTAN]: the AC50 was > 30 µM in [1]; > 30 µM on D(1A) dopamine receptor; > 10 µM in [2]; > 30 µM in test [3]; > 10 µM in test [4]; > 10 µM in test [5]. The AC50 in [6] was > 30 µM; on Adenosine receptor A1 it was > 30 µM; in test [7], 14 µM.

With `CC[C@@]1(O)C(=O)OCc2c1cc1n(c2=O)Cc2cc3c([N+](=O)[O-])cccc3nc2-1` [RUBITECAN], the AC50 on Estrogen receptor is > 30 µM.

As to `N[C@@H](CC(=O)N1CCn2c(nnc2C(F)(F)F)C1)Cc1cc(F)c(F)cc1F` [SITAGLIPTIN], the concentration at half-maximal activity (AC50) was > 30 µM in [1]; > 30 µM on D(1A) dopamine receptor; > 10 µM in [2]; > 10 µM in test [3]; > 30 µM in [4]; > 30 µM in test [5]. For the same compound, the AC50 (in test [6]; on Adenosine receptor A1; in test [7]) was > 30 µM each time.

For `OC[C@@H](O)[C@@H](O)[C@H](O)[C@@H](O)CO` [SORBITOL], on Estrogen receptor, the AC50 was > 30 µM.

`OC[C@H]1O[C@@](CO)(O[C@H]2O[C@H](CO)[C@@H](O)[C@H](O)[C@H]2O)[C@@H](O)[C@@H]1O` [SUCROSE]: the AC50 (in test [1]; at D(1A) dopamine receptor; in test [3]; on Estrogen receptor; in test [4]; in test [6]) was > 30 µM in each case. In addition, the AC50 (at Adenosine receptor A1; in [7]) was > 30 µM in each case.

For the compound `Nc1ccc(S(=O)(=O)Nc2nccs2)cc1` [SULFATHIAZOLE], the AC50 is > 30 µM in test [1]; > 10 µM on D(1A) dopamine receptor; > 10 µM in [2]; > 30 µM in test [3]; > 10 µM in test [4]; > 10 µM in test [5]. For the same compound, the AC50 is > 30 µM in [6], > 30 µM on Adenosine receptor A1 and > 10 µM in test [7].

With `C=CC[C@@H]1/C=C(\C)C[C@H](C)C[C@H](OC)[C@H]2O[C@@](O)(C(=O)C(=O)N3CCCC[C@H]3C(=O)O[C@H](/C(C)=C/[C@@H]3CC[C@@H](O)[C@H](OC)C3)[C@H](C)[C@@H](O)CC1=O)[C@H](C)C[C@@H]2OC` [TACROLIMUS ANHYDROUS], the AC50 in test [1] is 7.49 µM and > 30 µM; at D(1A) dopamine receptor it was > 30 µM; in test [2], > 10 µM; in test [3] it was > 30 µM; in test [4], 23 µM and 20 µM; in test [5], > 30 µM. Besides, the AC50 (in test [6]; at Adenosine receptor A1; in test [7]) was > 30 µM throughout.

`C[C@]1(Cn2ccnn2)[C@H](C(=O)O)N2C(=O)C[C@H]2S1(=O)=O` [TAZOBACTAM]: the AC50 on Estrogen receptor was > 30 µM.

As for `Cc1onc(-c2ccccc2)c1-c1ccc(S(N)(=O)=O)cc1` [VALDECOXIB], the concentration at half-maximal activity (AC50) in [1] is > 30 µM; on D(1A) dopamine receptor, > 10 µM; in [2], 21.1 µM; in [3], > 30 µM; in [4], > 10 µM; in test [5] it was 8.32 µM. For the same compound, the AC50 is > 30 µM in test [6], 27.7 µM on Adenosine receptor A1 and > 10 µM in test [7].
